# PMC11501026, “L-Arginine and asymmetric dimethylarginine (ADMA) transport across the mouse blood-brain and blood-CSF barriers: Evidence of saturable transport at both interfaces and CNS to blood efflux” (PLOS ONE, 2024)
# Several values for one entry are separate records, joined by “and”; a condition that tells them apart may be missing. Equal values may be shown once. Where a name gives a salt, the structure may show the parent alone. Read-outs that look alike come from different tables or passages of the source.
# Tests used:
# Format in all cases: in vivo, mouse
# [1] = capillary depletion analysis after in situ brain perfusion; details: male, BALB/c, mouse, 5ml/min; for Kp at […]: 2.5 mins; for Kp at 30 min, 62.5 nM / Kp at 10 min, 62.5 nM: other: in situ brain perfusion, Balb/c ♂; for Kp at 10 min, 62.5 nM: CONTROL
# Method: The microvasculature within a sample of brain tissue can be separated from the brain parenchyma using capillary depletion analysis. Following perfusion, the remaining brain tissue after microdissection of the regions described above (typically 200–300 mg) underwent capillary depletion following a method modified for mouse. […]
# [2] = tested on: [^3H]-ADMA transport across the blood-brain and blood-CSF barriers; assay: cross-inhibition, in situ perfusion: [^3H]-ADMA with 100 μM unlabelled L-arginine; set-up: uptake into choroid plexus / uptake into frontal cortex / uptake into caudate nucleus / uptake into occipital cortex / uptake into hippocampus / uptake into hypothalamus / uptake into thalamus / uptake into cerebellum: unit not given here; details: [3H] ADMA + [14C] Sucrose + 100uM Arg, 10 mins, Balb/c ♂, 5ml/min; individual mice
# Method: (§1) Self-inhibition experiments were also performed. […] Cross-competition experiments were also performed.
# (§2) The percentage change in the RTissue uptake values achieved in the absence or presence of an unlabelled inhibitor can be calculated by means of Eq 4.
# (§3) %change=RTissue−RInhibition/RTissue×100 Eq 4
# (§4) We define RInhibition as the RTissue uptake in the presence of an inhibitor in the artificial plasma.
# (§5) A decrease in the uptake of radiolabelled solute in the presence of unlabelled inhibitor is indicative of a saturable influx transport system. Conversely, an increase in the uptake of radiolabelled solute in the presence of unlabelled inhibitor is indicative of a saturable efflux transport system.
# [3] = as above; set-up: uptake into choroid plexus / uptake into frontal cortex / uptake into caudate nucleus / uptake into occipital cortex / uptake into hippocampus / uptake into hypothalamus / uptake into thalamus / uptake into cerebellum: unit not given here; details: male, Balb/c, mouse, other: in situ brain perfusion, with 100 µM unlabelled L-arginine, 10 mins, Balb/c ♂, 5ml/min
# Method: as §1, §2, §3, §4, §5
# [4] = tested on: [3H]-ADMA transport across the blood-brain and blood-CSF barriers; assay: as above; set-up: uptake into choroid plexus / uptake into frontal cortex / uptake into caudate nucleus / uptake into occipital cortex / uptake into hippocampus / uptake into hypothalamus / uptake into thalamus / uptake into cerebellum: unit not given here; details: male, Balb/c, mouse, other: in situ brain perfusion, 10 mins, Balb/c ♂, 5ml/min
# Method: as §1, §2, §3, §4, §5
# [5] = endothelial cell-enriched pellet (capillary depletion), Difference (ADMA minus Sucrose), pellet, mean
# [6] = endothelial cell-enriched pellet (capillary depletion), [3H] ADMA and [14C] Sucrose uptake, pellet, mean
# [7] = whole-brain homogenate (capillary depletion), Difference (ADMA minus Sucrose), homogenate, mean
# [8] = whole-brain homogenate (capillary depletion), [3H] ADMA and [14C] Sucrose uptake, homogenate, mean
smiles,measurement,setting,value
"CN(C)C(N)=NCCC[C@H](N)C(=O)O [ADMA, N^G,N^G-dimethylarginine dihydrochloride]",Kp at […],"[1]; endothelial cell-enriched pellet (capillary depletion), Difference (ADMA minus Sucrose), pellet, individual mouse",0.0108
same,Kp at […],[1]; [5],0.0108
same,Kp at […],"[1]; endothelial cell-enriched pellet (capillary depletion), [3H] ADMA and [14C] Sucrose uptake, pellet, individual mouse",0.0124
same,Kp at […],[1]; [6],0.0131
same,"Kp at 30 min, 62.5 nM","[1]; endothelial cell-enriched pellet (capillary depletion), Difference (ADMA minus Sucrose), pellet, individual mice",0.0153
same,"Kp at 30 min, 62.5 nM",[1]; [5],0.012
same,"Kp at 10 min, 62.5 nM",[1]; [5],0.00783
same,"Kp at 30 min, 62.5 nM","[1]; endothelial cell-enriched pellet (capillary depletion), [3H] ADMA + [14C] Sucrose, individual mice, read-out: uptake, pellet",0.0184
same,"Kp at 30 min, 62.5 nM","[1]; endothelial cell-enriched pellet (capillary depletion), [3H] ADMA + [14C] Sucrose, mean, read-out: uptake, pellet",0.0166
same,"Kp at 10 min, 62.5 nM",[1]; [6],0.0527
same,Kp at […],[1]; [7],0.0793
same,"Kp at 20 min, 62.5 nM",[1]; [7],0.208
same,Kp at […],[1]; [8],0.0942
same,"Kp at 20 min, 62.5 nM",[1]; [8],0.234
same,"Kp at 30 min, 62.5 nM",[1]; [7],0.122
same,"Kp at 10 min, 62.5 nM","[1]; whole-brain homogenate (capillary depletion), Difference (ADMA minus Sucrose), homogenate, individual mouse",0.136
same,"Kp at 10 min, 62.5 nM",[1]; [7],0.127
same,"Kp at 30 min, 62.5 nM","[1]; whole-brain homogenate (capillary depletion), [3H] ADMA + [14C] Sucrose, mean, read-out: uptake, homogenate",0.156
same,"Kp at 10 min, 62.5 nM",[1]; [8],0.224
same,uptake into caudate nucleus,[2],0.06709 and 0.08883 and 0.04583 and 0.07378
same,uptake into cerebellum,[2],0.04812 and 0.06526 and 0.1041 and 0.02606 and 0.09306
same,uptake into choroid plexus,[2],0.5896 and 0.666 and 0.4457 and 0.7681
same,uptake into frontal cortex,[2],0.07007 and 0.07553 and 0.1227 and 0.05236 and 0.1082
same,uptake into hippocampus,[2],0.04437 and 0.05436 and 0.09956 and 0.03726 and 0.0687
same,uptake into hypothalamus,[2],0.1376 and 0.1261 and 0.09757 and 0.08557
same,uptake into occipital cortex,[2],0.04352 and 0.05773 and 0.1002 and 0.05331 and 0.07955
same,uptake into pituitary gland,[2],0.3174 and 0.8724 and 1.123 and 0.09502 and 0.5936
same,uptake into pons,[2],0.0747 and 0.145 and 0.1344 and 0.05028 and 0.06842
same,uptake into thalamus,[2],0.04368 and 0.06682 and 0.145 and 0.05879 and 0.08201
same,"Kp at 10 min, 62.5 nM","[3]; CSF, [3H] ADMA + [14C] Sucrose + 100uM Arg, mean, read-out: uptake into CSF",0.162
same,"Kp at 10 min, 62.5 nM","[3]; brain homogenate, Difference (ADMA minus Sucrose), homogenate, + 100uM Arg, mean",0.0265
same,"Kp at 10 min, 62.5 nM","[3]; brain homogenate, [3H] ADMA + [14C] Sucrose + 100uM Arg, mean, read-out: uptake, homogenate",0.063
same,"Kp at 10 min, 62.5 nM","[3]; pellet, Difference (ADMA minus Sucrose), pellet, + 100uM Arg, individual mice",0.00309
same,"Kp at 10 min, 62.5 nM","[3]; pellet, [3H] ADMA + [14C] Sucrose + 100uM Arg, mean, read-out: uptake, pellet",0.011
same,"Kp at 10 min, 62.5 nM","[3]; supernatant, Difference (ADMA minus Sucrose), supernatant, + 100uM Arg, mean",0.0204
same,"Kp at 10 min, 62.5 nM","[3]; supernatant, [3H] ADMA + [14C] Sucrose + 100uM Arg, mean, read-out: uptake, supernatant",0.0475
same,"Kp at 10 min, 62.5 nM","[4]; caudate nucleus, with 100 µM unlabelled L-arginine, Difference (ADMA minus Sucrose), caudate nucleus, + 100uM Arg, mean",0.0481
same,"Kp at 10 min, 62.5 nM","[4]; caudate nucleus, with 100 µM unlabelled L-arginine, [3H] ADMA + [14C] Sucrose + 100uM Arg, individual mice, read-out: uptake into caudate nucleus",0.0565
same,"Kp at 10 min, 62.5 nM","[4]; caudate nucleus, with 100 µM unlabelled L-arginine, [3H] ADMA + [14C] Sucrose + 100uM Arg, mean, read-out: uptake into caudate nucleus",0.0664
same,"Kp at 10 min, 62.5 nM","[4]; cerebellum, with 100 µM unlabelled L-arginine, Difference (ADMA minus Sucrose), cerebellum, + 100uM Arg, mean",0.0445
same,"Kp at 10 min, 62.5 nM","[4]; cerebellum, with 100 µM unlabelled L-arginine, [3H] ADMA + [14C] Sucrose + 100uM Arg, mean, read-out: uptake into cerebellum",0.0673
same,"Kp at 10 min, 62.5 nM","[4]; choroid plexus, with 100 µM unlabelled L-arginine, Difference (ADMA minus Sucrose), choroid plexus, + 100uM Arg, individual mice",0.469
same,"Kp at 10 min, 62.5 nM","[4]; choroid plexus, with 100 µM unlabelled L-arginine, Difference (ADMA minus Sucrose), choroid plexus, + 100uM Arg, mean",0.471
same,"Kp at 10 min, 62.5 nM","[4]; choroid plexus, with 100 µM unlabelled L-arginine, [3H] ADMA + [14C] Sucrose + 100uM Arg, individual mice, read-out: uptake into choroid plexus",0.609
same,"Kp at 10 min, 62.5 nM","[4]; choroid plexus, with 100 µM unlabelled L-arginine, [3H] ADMA + [14C] Sucrose + 100uM Arg, mean, read-out: uptake into choroid plexus",0.616
same,"Kp at 10 min, 62.5 nM","[4]; frontal cortex, with 100 µM unlabelled L-arginine, Difference (ADMA minus Sucrose), frontal cortex, + 100uM Arg, mean",0.0598
same,"Kp at 10 min, 62.5 nM","[4]; frontal cortex, with 100 µM unlabelled L-arginine, [3H] ADMA + [14C] Sucrose + 100uM Arg, mean, read-out: uptake into frontal cortex",0.0858
same,"Kp at 10 min, 62.5 nM","[4]; hippocampus, with 100 µM unlabelled L-arginine, Difference (ADMA minus Sucrose), hippocampus, + 100uM Arg, mean",0.0475
same,"Kp at 10 min, 62.5 nM","[4]; hippocampus, with 100 µM unlabelled L-arginine, [3H] ADMA + [14C] Sucrose + 100uM Arg, mean, read-out: uptake into hippocampus",0.0608
same,"Kp at 10 min, 62.5 nM","[4]; hypothalamus, with 100 µM unlabelled L-arginine, Difference (ADMA minus Sucrose), hypothalamus, + 100uM Arg, individual mice",0.0699
same,"Kp at 10 min, 62.5 nM","[4]; hypothalamus, with 100 µM unlabelled L-arginine, Difference (ADMA minus Sucrose), hypothalamus, + 100uM Arg, mean",0.0777
same,"Kp at 10 min, 62.5 nM","[4]; hypothalamus, with 100 µM unlabelled L-arginine, [3H] ADMA + [14C] Sucrose + 100uM Arg, individual mice, read-out: uptake into hypothalamus",0.105
same,"Kp at 10 min, 62.5 nM","[4]; hypothalamus, with 100 µM unlabelled L-arginine, [3H] ADMA + [14C] Sucrose + 100uM Arg, mean, read-out: uptake into hypothalamus",0.11
same,"Kp at 10 min, 62.5 nM","[4]; occipital cortex, with 100 µM unlabelled L-arginine, Difference (ADMA minus Sucrose), occipital cortex, + 100uM Arg, mean",0.048
same,"Kp at 10 min, 62.5 nM","[4]; occipital cortex, with 100 µM unlabelled L-arginine, [3H] ADMA + [14C] Sucrose + 100uM Arg, mean, read-out: uptake into occipital cortex",0.0669
same,"Kp at 10 min, 62.5 nM","[4]; pineal gland, with unlabelled L-arginine 100 µM, Difference (ADMA minus Sucrose), pineal gland, + 100uM Arg, mean",0.613
same,"Kp at 10 min, 62.5 nM","[4]; pineal gland, with unlabelled L-arginine 100 µM, [3H] ADMA + [14C] Sucrose + 100uM Arg, mean, read-out: uptake into pineal gland",0.915
same,"Kp at 10 min, 62.5 nM","[4]; pituitary gland, with 100 µM unlabelled L-arginine, Difference (ADMA minus Sucrose), pituitary gland, + 100uM Arg, mean",0.487
same,"Kp at 10 min, 62.5 nM","[4]; pituitary gland, with 100 µM unlabelled L-arginine, [3H] ADMA + [14C] Sucrose + 100uM Arg, mean, read-out: uptake into pituitary gland",0.6
same,"Kp at 10 min, 62.5 nM","[4]; pons, with 100 µM unlabelled L-arginine, Difference (ADMA minus Sucrose), pons, + 100uM Arg, mean",0.0483
same,"Kp at 10 min, 62.5 nM","[4]; pons, with 100 µM unlabelled L-arginine, [3H] ADMA + [14C] Sucrose + 100uM Arg, mean, read-out: uptake into pons",0.0946
same,"Kp at 10 min, 62.5 nM","[4]; thalamus, with 100 µM unlabelled L-arginine, Difference (ADMA minus Sucrose), thalamus, + 100uM Arg, mean",0.0566
same,"Kp at 10 min, 62.5 nM","[4]; thalamus, with 100 µM unlabelled L-arginine, [3H] ADMA + [14C] Sucrose + 100uM Arg, mean, read-out: uptake into thalamus",0.0793
